Data as given in patent publication US10993433B2, “Method of producing in vitro testicular constructs and uses thereof” (Wake Forest University Health Sciences, priority 2015, dated 2021).
Like-named read-outs stand apart in the source and are kept apart here.

Tests used:
[1] = system: 2D cultured cells (SSC, Sertoli, Leydig at the same cell ratios and density of 3D organoids); experiment: Drug toxicity test, CellTiter-Glo ATP viability, 2D cultured testicular cells; type: cell-based, human; conditions: 2D culture, 48 hours exposure, ATP content (CellTiter-Glo)
Protocol: (§1) For toxicity testing, cisplatin and etoposide were purchased from Santa Cruz Biotechnology (Dallas, Tex.) and stock solutions of 5 mM and 25 mM were made in 0.9% NaCl and DMSO, respectively. Doxorubicin was purchased from Sigma-Aldrich, (St. Louis, Mo.) and a stock solution was produced in diH2O at a concentration of 10 mM. Busulfan (24 mM) was purchased from Otsuka Pharmaceutical (Tokyo, Japan) and was diluted into medium immediately prior to use. The undifferentiated (just after formation, 2 days in culture) and differentiated (23 days in culture) organoids, as well as 2D cultured cells (at the same cell ratios and density of 3D organoids), were treated for 48 hours in 6 different concentrations of each drug (0.01, 0.1, 1, 10, 100 and 1000 μM) in vitro. After 48 hours, CellTiter-Glo® Luminescent Cell Viability assays were performed (Promega) on all conditions. Briefly, culture plates were removed from the incubator and equilibrated to room temperature for 30 minutes. To each well of the 96-well culture plate, 100 μl of CellTiter-Glo® reagent was added at a 1:1 ratio and plates were moved to an orbital shaker for 5 minutes to induce cell lysis. Plates were incubated at room temperature for 10 minutes to stabilize luminescent signal and read on a Veritas™ luminometer. Integration times of 1 second were used for all samples. All conditions were performed in triplicate and medium only control wells were read and subsequently used for background subtraction. IC50 values were determined using GraphPad Prism® 6 calculated via 4-parameter fit with a 95% confidence interval. All experimental conditions were repeated at least three times.
(§2) The use of human testicular organoids as a novel screening tool for reproductive toxicity was assess by exposing 3D organoids to four clinically relevant antimitotic chemotherapeutic drugs: busulfan, cisplatin, doxorubicin, and etoposide. To obtain IC50 values, undifferentiated (2 days in culture) and differentiated (23 days in culture) organoids were exposed to increasing concentrations of drugs for 48 hours. H&E staining as well as Live/Dead viability assays were performed on organoids following drug treatment (FIG. 7A and Figure B, respectively). Drug-treated organoids were harvested and further evaluated for toxicity by measuring ATP production (CellTiter-Glo®; Promega, Madison, Wis.). Resulting viability was then used to establish IC50 values for organoid cultures (FIG. 7C).

[2] = system: 3D human testicular organoids; experiment: Drug toxicity test, CellTiter-Glo ATP viability, 3D testicular organoids; type: cell-based; conditions: 48 hours exposure, ATP content
Protocol: Isolated human SSC, immortalized Sertoli cells, and immortalized Leydig cells at passage 5-6 were propagated in normal 6-well tissue culture plates to 80-90% confluency and passaged using trypsin EDTA (0.25%). Counted cells were pelleted and resuspended in a testicular organoid formation medium composed of normal StemPro®-34 (Invitrogen) SSC proliferation medium supplemented with 30% FBS, 1 μg/mL solubilized human testis extracellular matrix extract and 50 μg/mL Gentamycin. All three cell suspensions were combined together at a ratio of 8:1:1 and seeded into Perfecta3D® 96-well hanging drop plates (3D Biomatrix, Ann Arbor, Mich.) or GravityPLUS™ 96-well hanging drop plates (InSphero, Schlieren, Switzerland) at a density of 10,000 cells/40 μl drop volume. Following 48-72 hours of hanging drop culture, all testicular cell subtypes had amalgamated into compact organoids and were transferred into 96-well format Corning® Costar® Ultra-low Attachment Multiwell U-bottom plates for long term culture (Sigma-Aldrich, St. Louis, Mo.). For long-term study, all testicular organoids were cultured inn normal StemPro®-34 SSC proliferation medium without human leukemia inhibitory factor (LIF) and supplemented with 1 μg/mL solubilized human testis extracellular matrix extract, 2 μM retinoic acid (Sigma-Aldrich), 2.5×10^−5 IU follicle-stimulating hormone (Sigma-Aldrich), 100 ng/mL recombinant human stem cell factor (SCF; PeproTech, Rocky Hill, N.J.), and 50 μg/mL Gentamycin. Culture medium was refreshed every 4 days. All testicular organoids were cultured at 34° C. and 5% CO2.
as §1
as §2, with “Resulting viability was then used to establish IC50 values for organoid cultures (FIG. 7C).” left out

[3] = Homo sapiens, differentiated organoids (23 days in culture), read-out: 3D IC50 Differentiated Organoids
[4] = Homo sapiens, undifferentiated organoids (2 days in culture), read-out: 3D IC50 Undifferentiated Organoids

SMILES | IC50 ([1]; Homo sapiens, Leydig) [µM] | IC50 [2, 3] [µM] | IC50 [2, 4] [µM] | IC50 [1] [µM] | IC50 ([2]; differentiated organoids (23 days in culture), read-out: 3D IC50 Differentiated Organoids) [µM] | IC50 ([2]; undifferentiated organoids (2 days in culture), read-out: 3D IC50 Undifferentiated Organoids) [µM]
CS(=O)(=O)OCCCCOS(C)(=O)=O [Busulfan] | 328 | 906 | 830 | – | – | –
N.N.[Cl][Pt][Cl] [Cisplatin] | – | – | – | 23.8 | 158 | 38.4
COc1cccc2c1C(=O)c1c(O)c3c(c(O)c1C2=O)C[C@@](O)(C(=O)CO)C[C@@H]3O[C@H]1C[C@H](N)[C@H](O)[C@H](C)O1 [Doxorubicin] | 0.19 | 2.76 | 1.33 | – | – | –
COc1cc([C@@H]2c3cc4c(cc3[C@@H](O[C@@H]3O[C@@H]5CO[C@@H](C)O[C@H]5[C@H](O)[C@H]3O)[C@H]3COC(=O)[C@H]23)OCO4)cc(OC)c1O [Etoposide] | 43.5 | 839 | 449 | – | – | –
